Compound	melting point [°C]
CCC(C)Nc1nc(-n2cccn2)cc(Cl)c1-c1c(F)cccc1Cl (stereo not shown) [I-16]	114
Fc1cccc(Cl)c1-c1c(NC2CCC(c3ccccc3)CC2)cc(-n2cccn2)nc1Cl (stereo not shown) [I-4]	170
Fc1cccc(Cl)c1-c1c(Cl)cc(-n2cccn2)nc1NC1CCCCC1 [I-43]	152
Cc1cccc(-c2cc(Cl)c(-c3c(F)cccc3Cl)c(NC(C)C)n2)n1 [I-45]	131
CC(C)Nc1nc(-c2nc3ccccc3s2)cc(Cl)c1-c1c(F)cccc1Cl [I-51]	119
CC(C)Nc1cc(-c2nccs2)nc(Cl)c1-c1c(F)cccc1Cl [I-48]	78
Fc1cccc(Cl)c1-c1c(Cl)cc(-n2cccn2)nc1NC1CC1 [I-23]	103
CCC(C)Nc1cc(-n2cccn2)nc(Cl)c1-c1c(F)cccc1Cl (stereo not shown) [I-15]	108
Fc1cccc(Cl)c1-c1c(Cl)cc(-n2cccn2)nc1NC1CCC(c2ccccc2)CC1 (stereo not shown) [I-5]	78
COc1ccc(CCNc2cc(-n3cccn3)nc(Cl)c2-c2c(F)cccc2Cl)cc1OC [I-58]	201
CC(C)(C)C1CCC(Nc2nc(-n3cccn3)cc(Cl)c2-c2c(F)cccc2Cl)CC1 (stereo not shown) [I-9]	126
CC(C)Nc1cc(-n2cncn2)nc(Cl)c1-c1c(F)cccc1Cl [I-13, 2-Chloro-3-(2-chloro-6-fluorophenyl)-4-(2-propylamino)-6-([1,2,4]triazol-1-yl)pyridine]	152
Cc1nc(-c2cc(NC(C)C)c(-c3c(F)cccc3Cl)c(Cl)n2)sc1C [I-50]	183
COc1ccc(CCNc2nc(-n3cccn3)cc(Cl)c2-c2c(F)cccc2Cl)cc1OC [I-57]	59
CC(C)Nc1nc(-n2cncn2)cc(Cl)c1-c1c(F)cccc1Cl [I-14, 4-chloro-3-(2-chloro-6-fluorophenyl)-2-(2-propylamino)-6-([1,2,4]triazol-1-yl)pyridine]	152

Results, then the compound that gave them:

melting point [°C]	Compound
164	Fc1cccc(Cl)c1-c1c(NC2CC2)cc(-n2cccn2)nc1Cl [I-22]
120	CC1CCN(c2nc(-n3cccn3)cc(Cl)c2-c2c(F)cccc2Cl)CC1 [I-19]
158	Fc1cccc(Cl)c1-c1c(Cl)cc(-n2cccn2)nc1N1CCCC1 [I-20]
154	CC(C)Nc1cc(-c2nc3ccccc3s2)nc(Cl)c1-c1c(F)cccc1Cl [I-52]
112	Fc1cccc(Cl)c1-c1c(NC2CCCCC2)cc(-n2cccn2)nc1Cl [I-44]
181	Fc1cccc(Cl)c1-c1c(NC2CCC(c3ccccc3)CC2)cc(-c2ccccn2)nc1Cl (stereo not shown) [I-25]
155	Fc1cccc(Cl)c1-c1c(Cl)cc(-c2ccccn2)nc1N1CCCC1 [I-40]
119	CC1CCN(c2cc(-c3ccccn3)nc(Cl)c2-c2c(F)cccc2Cl)CC1 [I-31]
129	CC1CCN(c2nc(-c3ncccn3)cc(Cl)c2-c2c(F)cccc2Cl)CC1 [I-53]
161	Fc1cccc(Cl)c1-c1c(N2CCCC2)cc(-n2cccn2)nc1Cl [I-21]
83	Fc1cccc(Cl)c1-c1c(NC2CCCCC2)cc(-c2ccccn2)nc1Cl [I-36]
129	CC1CCN(c2cc(-c3ncccn3)nc(Cl)c2-c2c(F)cccc2Cl)CC1 [I-54]
78	COc1ccc(CCNc2cc(-c3ccccn3)nc(Cl)c2-c2c(F)cccc2Cl)cc1OC [I-56]
163	CC(C)(C)C1CCC(Nc2cc(-c3ccccn3)nc(Cl)c2-c2c(F)cccc2Cl)CC1 (stereo not shown) [I-27]
162	Fc1cccc(Cl)c1-c1c(Cl)cc(-c2ccccn2)nc1NC1CCC(c2ccccc2)CC1 (stereo not shown) [I-24]
67	CC(C)Nc1nc(-c2ccccn2)cc(Cl)c1-c1c(F)cccc1Cl [I-39]

From patent publication US7695728B2, “2-substituted pyridines, processes for their preparation and their use for controlling harmful fungi” (BASF Aktiengesellschaft, priority 2004, dated 2010)
